Test results published in patent US20130217664A1, “NOVEL COMPOUNDS USEFUL FOR THE TREATMENT OF DEGENERATIVE AND INFLAMMATORY DISEASES” (priority 2012, published 2013).
Where two headings read alike, the source gives them in different places.

Tests used:
human JAK3 = target: T1, human JAK3 (Homo sapiens, UniProt P52333); experiment: JAK3 inhibition assay; type: biochemical; conditions: recombinant human JAK3 catalytic domain; polyGT substrate
T1 construct: catalytic domain (amino acids 781-1124; catalog number PV3855); purchased Invitrogen PV3855
Method in brief: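 Radiometric kinase assay: 0.5 ng JAK3 with 2.5 μg polyGT in Tris pH 7.5/MgCl2 buffer, 1 μM ATP plus 0.25 μCi 33P-γ-ATP, 1% DMSO, 45 min at 30 °C, stopped with phosphoric acid.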

[1] = system: pSTAT1(2)-luciferase reporter in HeLa cells triggered with human OSM; experiment: JAK-STAT signalling assay; type: cell-based; conditions: read-out: JAK-STAT IC50
Method in brief: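 HeLa cells transiently co-transfected with pSTAT1(2)-luciferase and LacZ control reporter, preincubated with compound 60 min, then stimulated with human OSM (33 ng/mL final) overnight at 37 °C. Luciferase read by luminescence; percent inhibition from vehicle and no-trigger controls, EC50 from dose-response.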

CTLL-2 cell line = experiment: CTLL2 viability assay; type: cell-based; conditions: Mus musculus, IL-2 dependent CTLL2 viability, 24 h, ATP-lite
Text: The protocol describes the methods to analyse the activity of compounds on their ability to sustain the IL2-dependent viability of CTLL2.
Final DMSO concentration was 0.1%.

BA/F3 cell line = experiment: BA/F3 viability assay; conditions: Mus musculus, BaF3, 48 h, read-out: BA/F3 IC50
[2] = Homo sapiens, HeLa, HeLa cells, pSTAT1(2)-luciferase reporter, human OSM 33 ng/mL
[3] = HeLa cells, pSTAT1(2)-luciferase reporter, human OSM 33 ng/mL

T1 sequence (P52333 781-1124): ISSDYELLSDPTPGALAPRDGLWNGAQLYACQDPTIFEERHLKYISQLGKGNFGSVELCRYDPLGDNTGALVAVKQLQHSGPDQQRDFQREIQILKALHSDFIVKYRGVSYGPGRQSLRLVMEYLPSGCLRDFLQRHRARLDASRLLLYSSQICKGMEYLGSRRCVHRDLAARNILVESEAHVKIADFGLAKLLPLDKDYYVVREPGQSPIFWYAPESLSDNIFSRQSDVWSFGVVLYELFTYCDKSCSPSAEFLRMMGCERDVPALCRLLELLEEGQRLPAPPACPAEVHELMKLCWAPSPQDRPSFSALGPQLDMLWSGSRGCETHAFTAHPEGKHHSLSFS

Row | IC50 (human JAK3) | IC50 [1, 2] | IC50 (BA/F3 cell line) | IC50 [1, 3] | SMILES | IC50 (CTLL-2 cell line) | IC50 ([1]; Homo sapiens, HeLa)
1 | 101 to 500 nM | 1 to 500 nM | > 5000 nM | – | CCc1cc(CO)ccc1N(C)c1cc2c(cn1)ncn2C [Compound 81, (3-Ethyl-4-(methyl(1-methyl-1H-imidazo[4,5-c]pyridin-6-yl)amino)phenyl)MeOH] | > 1000 nM | –
2 | 101 to 500 nM | 1 to 500 nM | > 5000 nM | – | CCc1cc(-c2cnn(C)c2)ccc1N(C)c1cc2c(cn1)ncn2C [Compound 93, N-(2-Ethyl-4-(1-methyl-1H-pyrazol-4-yl)phenyl)-N,1-dimethyl-1H-imidazo[4,5-d]pyridin-6-amine] | > 1000 nM | –
3 | > 1000 nM | 501 to 1000 nM | > 5000 nM | – | CCc1cc(-c2cncnc2)ccc1N(C)c1cc2c(cn1)ncn2C [Compound 95, N-(2-ethyl-4-(pyrimidin-5-yl)phenyl)-N,1-dimethyl-1H-imidazo[4,5-c]pyridin-6-amine] | > 1000 nM | –
4 | 101 to 500 nM | 1 to 500 nM | > 5000 nM | – | CCc1cc(C(C)O)ccc1N(C)c1cc2c(cn1)ncn2C (stereo not shown) [Compound 101, 1-(3-Ethyl-4-(methyl(1-methyl-1H-imidazo[4,5-c]pyridin-6-yl)amino)phenyl)ethanol] | > 1000 nM | –
5 | > 1000 nM | 1 to 500 nM | > 5000 nM | – | CCc1cc(-c2cnc(NC(C)=O)nc2)ccc1N(C)c1cc2c(cn1)ncn2C [Compound 115, N-(5-(3-Ethyl-4-(methyl(1-methyl-1H-imidazo[4,5-c]pyridin-6-yl)amino)phenyl)pyrimidin-2-yl)acetamide] | > 1000 nM | –
6 | 0.01 to 100 nM | 501 to 1000 nM | 1000 to 5000 nM | – | CCc1cc(CN(C)S(C)(=O)=O)c(F)cc1N(C)c1cc2c(cn1)ncn2C [Compound 319, N-{5-Ethyl-2-fluoro-4-[methyl-(1-methyl-1H-imidazo[4,5-c]pyridin-6-yl)-amino]-benzyl}-N-methyl-methanesulfonamide] | > 1000 nM | –
7 | 501 to 1000 nM | > 1000 nM | – | – | CN(c1cc2c(cn1)ncn2C)c1ccc(CNC(=O)C(F)F)cc1F [Compound 320] | – | –
8 | > 1000 nM | > 1000 nM | – | – | CCc1cc(C#N)cc(F)c1N(C)c1cc2c(cn1)ncn2C [Compound 322, 3-Ethyl-5-fluoro-4-[methyl-(1-methyl-M-imidazo[4,5-c]pyridin-6-yl)-amino]-benzonitrile] | – | –
9 | 0.01 to 100 nM | 1 to 500 nM | > 5000 nM | – | CCc1cc(CNS(C)(=O)=O)cc(F)c1N(C)c1cc2c(cn1)ncn2C [Compound 323, N-{3-Ethyl-5-fluoro-4-[methyl-(1-methyl-1H-imidazo[4,5-c]pyridin-6-yl)-amino]-benzyl}-methanesulfonamide] | > 1000 nM | –
10 | 0.01 to 100 nM | 1 to 500 nM | – | – | CCc1cc(CNS(=O)(=O)C(F)F)cc(F)c1N(C)c1cc2c(cn1)ncn2C [Compound 324, N-{3-Ethyl-5-fluoro-4-[methyl-(1-methyl-1H-imidazo[4,5-c]pyridin-6-yl)-amino]-benzyl}-C,C-difluoro-methanesulfonamide] | – | –
11 | 101 to 500 nM | 1 to 500 nM | > 5000 nM | – | CCc1cc(CNS(C)(=O)=O)c(F)cc1N(C)c1cc2c(cn1)ncn2C [Compound 325, N-{5-Ethyl-2-fluoro-4-[methyl-(1-methyl-1H-imidazo[4,5-c]pyridin-6-yl)-amino]-benzyl}-methanesulfonamide] | > 1000 nM | –
12 | 101 to 500 nM | 501 to 1000 nM | – | – | CCc1cc(CNC(=O)C(F)F)c(F)cc1N(C)c1cc2c(cn1)ncn2C [Compound 326, N-{5-Ethyl-2-fluoro-4-[methyl-(1-methyl-M-imidazo[4,5-c]pyridin-6-yl)-amino]-benzyl}-2,2-difluoro-acetamide] | – | –
13 | 0.01 to 100 nM | 1 to 500 nM | 1000 to 5000 nM | – | CCc1cc(CNS(=O)(=O)C(F)F)c(F)cc1N(C)c1cc2c(cn1)ncn2C [Compound 327, N-{5-Ethyl-2-fluoro-4-[methyl-(1-methyl-M-imidazo[4,5-c]pyridin-6-yl)-amino]-benzyl}-C,C-difluoro-methanesulfonamide] | 501 to 1000 nM | –
14 | > 1000 nM | – | > 5000 nM | > 1000 nM | CCc1cc(C2CN(S(C)(=O)=O)C2)ncc1N(C)c1cc2c(cn1)ncn2C [Compound 328, [4-Ethyl-6-(1-methanesulfonyl-azetidin-3-yl)-pyridin-3-yl]-methyl-(1-methyl-1H-imidazo[4,5-c]pyridin-6-yl)-amine] | > 1000 nM | –
15 | > 1000 nM | – | > 5000 nM | 1 to 500 nM | CCc1cc(C2CN(S(=O)(=O)C(F)F)C2)ncc1N(C)c1cc2c(cn1)ncn2C [Compound 329, {6-[1-(Difluoro-methanesulfonyl)-azetidin-3-yl]-4-ethyl-pyridin-3-yl}-methyl-(1-methyl-1H-imidazo[4,5-c]pyridin-6-yl)-amine] | 501 to 1000 nM | –
16 | > 1000 nM | – | – | > 1000 nM | CCc1cc(C2CN(S(=O)(=O)C(C)C)C2)ncc1N(C)c1cc2c(cn1)ncn2C [Compound 330, {4-Ethyl-6-[1-(propane-2-sulfonyl)-azetidin-3-yl]-pyridin-3-yl}-methyl-(1-methyl-1H-imidazo[4,5-c]pyridin-6-yl)-amine] | – | –
17 | > 1000 nM | – | – | > 1000 nM | CCc1cc(C2CN(CC#N)C2)ncc1N(C)c1cc2c(cn1)ncn2C [Compound 331, (3-{4-Ethyl-5-[methyl-(1-methyl-1H-imidazo[4,5-c]pyridin-6-yl)-amino]-pyridin-2-yl}-azetidin-1-yl)-acetonitrile] | – | –
18 | > 1000 nM | – | – | > 1000 nM | CCc1cc(C2CN(C(C)=O)C2)ncc1N(C)c1cc2c(cn1)ncn2C [Compound 332, 1-(3-{4-Ethyl-5-[methyl-(1-methyl-1H-imidazo[4,5-c]pyridin-6-yl)-amino]-pyridin-2-yl}-azetidin-1-yl)-ethanone] | – | –
19 | 501 to 1000 nM | – | > 5000 nM | > 1000 nM | CCc1cc(C2CN(C(=O)C(F)F)C2)ncc1N(C)c1cc2c(cn1)ncn2C [Compound 333, 1-(3-{4-Ethyl-5-[methyl-(1-methyl-1H-imidazo[4,5-c]pyridin-6-yl)-amino]-pyridin-2-yl}-azetidin-1-yl)-2,2-difluoro-ethanone] | > 1000 nM | –
20 | 101 to 500 nM | – | > 5000 nM | > 1000 nM | CCc1cc(C2CN(C(=O)C(F)(F)F)C2)ncc1N(C)c1cc2c(cn1)ncn2C [Compound 334, 1-(3-{4-Ethyl-5-[methyl-(1-methyl-1H-imidazo[4,5-c]pyridin-6-yl)-amino]-pyridin-2-yl}-azetidin-1-yl)-2,2,2-trifluoro-ethanone] | > 1000 nM | –
21 | 101 to 500 nM | – | – | 501 to 1000 nM | CCc1cc(CNS(=O)(=O)C(F)F)ncc1N(C)c1cc2c(cn1)ncn2C [Compound 343, N-{4-Ethyl-5-[methyl-(1-methyl-1H-imidazo[4,5-c]pyridin-6-yl)-amino]-pyridin-2-ylmethyl}-C,C-difluoro-methane sulfonamide] | > 1000 nM | –
22 | 101 to 500 nM | – | – | > 1000 nM | CCc1ccccc1N(CC(F)F)c1cc2c(cn1)ncn2C [Compound 463, N-(2,2-difluoroethyl)-N-(2-ethylphenyl)-1-methyl-1H-imidazo[4,5-c]pyridin-6-amine] | – | –

Row | SMILES | IC50 (human JAK3) | IC50 [1, 2] | IC50 (BA/F3 cell line) | IC50 [1, 3] | IC50 (CTLL-2 cell line) | IC50 ([1]; Homo sapiens, HeLa)
23 | CCc1cn(CCC#N)nc1N(C)c1cc2c(cn1)ncn2C [Compound 316, 3-{4-Ethyl-3-[methyl-(1-methyl-1H-imidazo[4,5-c]pyridin-6-yl)-amino]-pyrazol-1-yl}-propionitrile] | > 1000 nM | – | – | – | – | > 1000 nM
